Where a name gives a salt, the structure may show the parent alone.
How the values were obtained:
[1] = target: limbic D-2 dopamine receptor (Rattus norvegicus, UniProt P61169); assay: biochemical; type: binding, rats; conditions: for Ki: rat limbic tissue, 0.3 nM 3H-spiroperidol, 37° C., 10 min, read-out: Limbic D-2 Binding (Ki nM)
Experimental: The compounds of the invention are further studied for their ability to inhibit limbic D-2 dopamine receptor binding. This in vitro assay measures the ability of the compounds tested to bind to the dopamine receptor sites.
Several rats are decapitated and the brains are rapidly removed. Limbic brain tissue (nucleus accumbens, septal area, olfactory tubercle) is dissected and homogenized on ice in 9 volumes of buffer (50 mM Tris-HCl, 120 mM NaCl, 5 mM KCl, 1 mM CaCl2, 1 mM MgCl2, 0.1% L-ascorbic acid, 10 μM pargyline HCl, pH 7.1) using a Polytron homogenizer at setting 5 for three 15-sec bursts. The homogenate is then diluted 4-fold with buffer and centrifuged at 30,000×g for 20 min, and the supernatant is discarded. The pellet is resuspended in the same volume of buffer and recentrifuged as before, again discarding the supernatant. This pellet is then resuspended in the same volume of buffer used in the homogenization, and the protein content of this preparation is assyed by the Lowry method. The homogenate is stored frozen at -70° C. until use.
Thirty μL of the homogenate (0.02-0.3 mg protein/sample) are incubated with 0.3 nM ^3 H-spiroperidol (New England Nuclear) and various concentrations of test drug in a final volume of 1 ml of the above buffer for 10 min in a 37° C. water bath. At the end of the incubation, 3 ml of cold 50 mM Tris-HCl, pH 7.7, are added to each tube, and the contents are rapidly vacuum-filtered through Whatman GF/B glass-fiber filters. The filters are then rapidly washed 3 times with 3 ml of the same buffer, placed in scintillation vials, and shaken for 15 min with 10 ml of Hydrofluor (National Diagnostics) scintillation cocktail. The vials are then counted in a Packard 460CD scintillation counter.
Specific binding is defined as total binding less binding in the presence of 1 μM (+)butaclamol. Binding in the presence of various concentrations of test drug is expressed as a per cent of specific binding when no drug is present.

[2] = Conditioned avoidance (discrete trial) test; type: in vivo, Male CD rats; conditions: for ED50: Rattus norvegicus; for Activity at 40 mg/kg: 40 mg/kg perorally administered
Experimental: The antipsychotic activity of the compounds of the invention is assessed via the conditioned avoidance (discrete trial) test. This test has excellent clinical correlation for antipsychotic activity.
Male CD rats (Charles River) maintained at approximately 400-450 gm body weight are used. Rats trained previously are placed in plexiglass experimental chambers equipped with a response lever, house light, and sonalert. A steel grid floor is wired for presentation of electric shock. Each trial consists of a fifteen-second warning tone (conditioned stimulus), continuing for an additional fifteen seconds accompanied by electric shock, (unconditioned stimulus). The rat can terminate a trial at any point by depression of the response lever. A response during the initial fifteen-second warning tone ends the trial before shock delivery and is considered an avoidance response, while a response occurring during shock delivery is an escape response. Trials are presented on a variable interval schedule of two minutes. The session consists of sixty trials. Animals are run two to three times weekly with control sessions always preceding a drug run, and with at least one day intervening, compounds are administered i.p. or p.o. at appropriate pre-treatment times to a minimum of five to six rats at each dose level over a range of doses.
The following experimental parameters are recorded by computer: (1) the number of intertrial interval responses, (2) the number of avoidance responses, (3) the number of escape responses, and (4) the number of trials in which no response occurred.
Response counts are summed over all subjects at a given dose. […] This number is expressed as a percentage of the total trials. Control performance is arbitrarily assigned a value of 100% for avoidance and the dose calculated to produce a 50% block in avoidance responding (AB50 ) is obtained from a dose-effect regression line fitted by the method of least squares. Potential antipsychotic compounds suppress avoidance responding and increase escape responding.

[3] = Conditioned avoidance (shelf-jump response) test; type: in vivo, Male CD rats; conditions: Rattus norvegicus, ip, rats, read-out: AB50 (standard compounds)
From the text: Another test designed to determine the potential antipsychotic activity of the compounds of the invention is the conditioned avoidance (shelf-jump response) test.
Male CD rats (Charles River) maintained at approximately 400-450 gm body weight are used. […] A moveable wall, controlled by a motor, determines whether the rat has access to the shelf at any time during the experiment. The experimental chamber also contains a house light and sonalert. A steel grid floor in the main chamber is wired for presentation of electric shock. Each trial consists of a fifteen-second warning tone (conditioned stimulus), continuing for an additional fifteen seconds accompanied by electric shock (unconditioned stimulus). A response (jumping onto the exposed shelf of the upper chamber) occurring during the initial fifteen-second warning tone is considered an avoidance response, while a response occurring during shock delivery is considered an escape response. Trials are presented on a fixed interval schedule of one minute. The session consists of thirty-six trials. […]
The following experimental parameters are recorded by computer: (1) the number of avoidance responses, (2) the number of escape responses, and (3) the number of trials in which no response occurred.
Response counts are summed over all subjects at a given dose. […] This number is expressed as a percentage of the total trials. […]

dopamine receptor = conditions: mice; 10 mg/kg s.c. apomorphine
[4] = po, perorally administered, discrete trial, rats, read-out: AB50 (the source's name)

Chain of limbic D-2 dopamine receptor (P61169 whole entry): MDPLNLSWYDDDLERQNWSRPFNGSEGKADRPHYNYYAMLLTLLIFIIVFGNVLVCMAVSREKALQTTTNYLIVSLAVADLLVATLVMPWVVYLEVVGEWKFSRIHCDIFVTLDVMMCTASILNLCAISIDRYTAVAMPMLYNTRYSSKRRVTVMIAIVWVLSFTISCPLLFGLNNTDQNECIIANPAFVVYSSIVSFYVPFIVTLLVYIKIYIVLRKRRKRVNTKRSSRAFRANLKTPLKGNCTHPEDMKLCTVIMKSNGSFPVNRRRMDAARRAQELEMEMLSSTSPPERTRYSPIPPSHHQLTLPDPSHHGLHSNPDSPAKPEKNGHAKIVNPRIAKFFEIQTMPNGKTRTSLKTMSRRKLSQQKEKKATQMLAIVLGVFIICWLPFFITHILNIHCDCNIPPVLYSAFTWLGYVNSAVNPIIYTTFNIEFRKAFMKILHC

Ki [1]	Structure (SMILES)	ED50 [2, 4]	Activity at 40 mg/kg [2]	other results
–	O=C1[C@@H]2[C@@H]([C@H]3CC[C@@H]2O3)S(=O)(=O)N1CCCCN1CCN(c2cncc(Cl)n2)CC1 (relative stereo) [Example 8, 3aα,4β,7β,7aα-hexahydro-2-[4-[4-(6-chloro-2-pyrazinyl)-1-piperazinyl]butyl]-4,7-epoxy-1,2-benzisothiazol-3(2H)-one 1,1-dioxide, hydrochloride]	34.3 mg/kg	–	inhibition at 10 µM ([1]; read-out: Limbic D-2 Binding, % inhibition at 10 μM): 36%
–	O=C1[C@H]2[C@H]([C@@H]3CC[C@H]2O3)S(=O)(=O)N1CCCCN1CCN(c2cnccn2)CC1 (relative stereo) [Example 19, (3aα,4β,7β,7aα)-Hexahydro-2-[4-[4-(2-pyrazinyl)-1-piperazinyl]butyl]-4,7-epoxy-1,2-benzisothiazol-3(2H)-one 1,1-dioxide, dihydrochloride, hemihydrate]	47.9 mg/kg	–	–
–	O=C1[C@@H]2[C@@H]([C@@H]3CC[C@H]2O3)S(=O)(=O)N1CCCCN1CCN(c2cncc(Cl)n2)CC1 (relative stereo) [Example 20, (3aα,4α,7α,7aα)-2-[4-[4-(6-Chloro-2-pyrazinyl)-1-piperazinyl]butyl]hexahydro-4,7-epoxy-1,2-benzisothiazol-3(2H)-one 1,1-dioxide, hydrochloride]	–	showed activity	–
–	O=C1CC2(CCCC2)CC(=O)N1CCCCN1CCN(c2ncccn2)CC1 [Buspirone, 8-[4-[4-(2-pyrimidinyl)-1-piperazinyl]butyl]-8-azaspiro[4.5]decane-7,9-dione]	32 mg/kg	–	ED50 [3]: 9.44 mg/kg; Activity in apomorphine-induced stereotyped behavior assay (dopamine receptor): inactive
1100 nM	O=C1C2C3C=CC(C3)C2S(=O)(=O)N1CCCCN1CCN(c2ncccn2)CC1 (stereo not drawn) [Example 1, 3a,4,7,7a-Tetrahydro-2-[4-[4-(2-pyrimidinyl)-1-piperazinyl]butyl]-4,7-methano-1,2-benzisothiazol-3(2H)-one 1,1-dioxide, dihydrochloride, hemihydrate]	45.4 mg/kg	–	–
–	CC1=C(C)CC2C(C1)C(=O)N(CCCCN1CCN(c3ncccn3)CC1)S2(=O)=O (stereo not drawn) [Example 3, 3a,4,7,7a-Tetrahydro-5,6-dimethyl-2-[4-[4-(2-pyrimidinyl)-1-piperazinyl]butyl]-1,2-benzisothiazol-3(2H)-one 1,1-dioxide dihydrochloride]	–	–	inhibition at 1 µM ([1]; read-out: Limbic D-2 Binding, % inhibition at 1 μM): 21%
1410 nM	O=C1C2C3C=CC(C4CC34)C2S(=O)(=O)N1CCCCN1CCN(c2ncccn2)CC1 (stereo not drawn) [Example 6, 4,4a,5,5a,6,6a-hexahydro-2-[4-[4-(2-pyrimidinyl)-1-piperazinyl]butyl]-4,6-etheno-2H-cyclopropa[f][1,2]benzisothiazol-3(3aH)-one 1,1-dioxide,dihydrochloride]	–	–	–
493 nM	O=C1c2ccccc2S(=O)(=O)N1CCCCN1CCN(c2nccnc2Cl)CC1 [Example 11, 2-[4-[4-(3-Chloro-2-pyrazinyl)-piperazinyl]butyl]-1,2-benzisothiazol-3(2H)-one 1,1-dioxide, hydrochloride]	–	–	–
507 nM	CC1=C(C)CC2C(C1)C(=O)N(CCCCN1CCN(c3nccnc3Cl)CC1)S2(=O)=O (stereo not drawn) [Example 13, 2-[4-[4-(3-Chloro-2-pyrazinyl)-1-piperazinyl]butyl]-3a,4,7,7a-tetrahydro-5,6-dimethyl-1,2-benzisothiazol-3(2H)-one 1,1-dioxide, hydrochloride, hydrate]	–	–	–
–	Cl.Cl.O=C1C2C3C=CC(C3)C2S(=O)(=O)N1CCCCN1CCN(c2cncc(Cl)n2)CC1 (stereo not drawn) [Example 14, 2-[4-[4-(6-Chloro-2-pyrazinyl)-1-piperazinyl]butyl]-3a,4,7,7a-tetrahydro-4,7-methano-1,2-benzisothiazol-3(2H)-one 1,1-dioxide, dihydrochloride]	78.2 mg/kg	–	–
–	O=C1C2C3CCC(C3)C2S(=O)(=O)N1CCCCN1CCN(c2ncccn2)CC1 (stereo not drawn) [Example 15, 2-[4-[4-(2-Pyrimidinyl)-1-piperazinyl]butyl]-3a,4,5,6,7,7a-hexahydro-4,7-methano-1,2-benzisothiazol-3(2H)-one 1,1-dioxide, dihydrochloride, hemihydrate]	–	showed activity	–
–	Cl.O=C1C2C3CCC(C3)C2S(=O)(=O)N1CCCCN1CCN(c2cncc(Cl)n2)CC1 (stereo not drawn) [Example 16, 2-[4-[4-(6-Chloro-2-pyrazinyl)-1-piperazinyl]butyl]-3a,4,5,6,7,7a-hexahydro-4,7-methano-1,2-benzisothiazol-3(2H)-one 1,1-dioxide, hydrochloride]	–	showed activity	–
–	O=C1C2C3CCC(C4CC43)C2S(=O)(=O)N1CCCCN1CCN(c2ncccn2)CC1 (stereo not drawn) [Example 17, Hexahydro-2-[4-[4-(2-pyrimidinyl)-1-piperazinyl]butyl-4,6-ethano-2H-cycloprop[f]-1,2-benzisothiazol-3(2H)-one 1,1-dioxide, hydrochloride]	–	showed activity	–
1030 nM	O=C1C2C3C=CC(C4CC34)C2S(=O)(=O)N1CCCCN1CCN(c2cncc(Cl)n2)CC1 (stereo not drawn) [Example 18, 2-[4-[4-(6-Chloro-2-pyrazinyl)-1-piperazinyl]butyl]-4,4a,5,5a,6,6a-hexahydro-4,6-etheno-2H-cycloprop[f]-1,2-benzisothiazol-3(2H)-one 1,1-dioxide, hydrochloride]	–	showed activity	–
–	O=C1C2C3C=CC(C4C=CC43)C2S(=O)(=O)N1CCCCN1CCN(c2ncccn2)CC1 (stereo not drawn) [Example 21, 3a,4,4a,6a,7,7a-Hexahydro-2-[4-[4-(2-pyrimidinyl)-1-piperazinyl]butyl]-4,7-ethenocyclobut[f]-1,2-benzisothiazol-3(2H)-one 1,1-dioxide, dihydrochloride]	39.4 mg/kg	showed activity	–
–	O=C(CCCN1CCC(O)(c2ccc(Cl)cc2)CC1)c1ccc(F)cc1 [Haloperidol, reference compound]	–	–	AB50 (standard compounds) ([2]; i.p., discrete trial, rats): 0.18 mg/kg i.p.
–	O=C(CCCN1CCC2(CC1)C(=O)NCN2c1ccccc1)c1ccc(F)cc1 [Spiperone, reference compound]	–	–	ED50 ([2]; ip, discrete trial, rats, read-out: AB50 (standard compounds)): 0.13 mg/kg

Structure (SMILES)	Ki [1]	ED50 [2, 4]	Activity at 40 mg/kg [2]	other results
O=C1C2C3C=CC(CC3)C2S(=O)(=O)N1CCCCN1CCN(c2ncccn2)CC1 (stereo not drawn) [Example 2, 3a,3,7,7a-Tetrahydro-2-[4-[4-(2-pyrimidinyl)-1-piperazinyl]butyl]-4,7-ethano-1,2-benzisothiazol-3(2H)-one 1,1-dioxide, dihydrochloride, hydrate]	2000 nM	–	–	–
